# Data reported in article PMC9228270, “Design, Synthesis, In Silico Studies and Inhibitory Activity towards Bcr-Abl, BTK and FLT3-ITD of New 2,6,9-Trisubstituted Purine Derivatives as Potential Agents for the Treatment of Leukaemia” (Pharmaceutics, 2022).
# Read-outs that look alike come from different tables or passages of the source.
# Assays:
# MV4-11 = assay: Cytotoxicity assay (resazurin), MV4-11; assay type: cell-based; settings: Homo sapiens, 72 h, three independent experiments, range 0.1 to 25 µM
# Description: (§1) Cytotoxicity assays for the purines were quantified using the resazurin method, a dye to measure redox reactions occurring in the mitochondria of live cells. The cells were treated by tested compounds (in triplicate, six different doses) for 72 h.
# Bcr-Abl1 = Bcr-Abl1 (Homo sapiens, UniProt P00519); assay: Recombinant kinase radioassay, Abl; assay type: biochemical; settings: ATP 1 µM, at least three independent experiments, range 0.01–100 µM
# Description: (§2) Recombinant kinase inhibition was measured using standard radioassay. Bcr-Abl1 and Cdk-2/cyclin E kinases were produced in-house, FLT3-ITD and BTK were purchased from ProQinase. The kinases were assayed with suitable substrates (500 µM peptide […] for Abl, 1 mg/mL histone H1 for Cdk-2, 100 µM poly (Glu:Tyr; 4:1)) in the presence of ATP (1 µM for Bcr-Abl, 15 µM for Cdk-2 and BTK), 0.05 µCi [γ-^33P]ATP and the test compound in reaction buffer (60 mM HEPES-NaOH, pH 7.5, 3 mM MgCl2, 3 mM MnCl2, 3 µM Na orthovanadate, 1.2 mM DTT, 2.5 µg/50 µL PEG20.000). The reactions were stopped by adding 3% aq. H3PO4. P-81 phosphocellulose (Whatman) was used to separate phosphorylated substrates. Kinase activity was quantified using a FLA-7000 digital image analyser.
# BTK = target: T1, BTK (Homo sapiens, UniProt Q06187); assay: Recombinant kinase radioassay, BTK; assay type: biochemical
# T1 construct: purchased ProQinase
# Description: as §2
# FLT3-ITD = target: T2, FLT3-ITD (Homo sapiens, UniProt P36888, ITD); assay: Recombinant kinase radioassay, FLT3-ITD; assay type: biochemical
# T2 sequence (P36888 27-993): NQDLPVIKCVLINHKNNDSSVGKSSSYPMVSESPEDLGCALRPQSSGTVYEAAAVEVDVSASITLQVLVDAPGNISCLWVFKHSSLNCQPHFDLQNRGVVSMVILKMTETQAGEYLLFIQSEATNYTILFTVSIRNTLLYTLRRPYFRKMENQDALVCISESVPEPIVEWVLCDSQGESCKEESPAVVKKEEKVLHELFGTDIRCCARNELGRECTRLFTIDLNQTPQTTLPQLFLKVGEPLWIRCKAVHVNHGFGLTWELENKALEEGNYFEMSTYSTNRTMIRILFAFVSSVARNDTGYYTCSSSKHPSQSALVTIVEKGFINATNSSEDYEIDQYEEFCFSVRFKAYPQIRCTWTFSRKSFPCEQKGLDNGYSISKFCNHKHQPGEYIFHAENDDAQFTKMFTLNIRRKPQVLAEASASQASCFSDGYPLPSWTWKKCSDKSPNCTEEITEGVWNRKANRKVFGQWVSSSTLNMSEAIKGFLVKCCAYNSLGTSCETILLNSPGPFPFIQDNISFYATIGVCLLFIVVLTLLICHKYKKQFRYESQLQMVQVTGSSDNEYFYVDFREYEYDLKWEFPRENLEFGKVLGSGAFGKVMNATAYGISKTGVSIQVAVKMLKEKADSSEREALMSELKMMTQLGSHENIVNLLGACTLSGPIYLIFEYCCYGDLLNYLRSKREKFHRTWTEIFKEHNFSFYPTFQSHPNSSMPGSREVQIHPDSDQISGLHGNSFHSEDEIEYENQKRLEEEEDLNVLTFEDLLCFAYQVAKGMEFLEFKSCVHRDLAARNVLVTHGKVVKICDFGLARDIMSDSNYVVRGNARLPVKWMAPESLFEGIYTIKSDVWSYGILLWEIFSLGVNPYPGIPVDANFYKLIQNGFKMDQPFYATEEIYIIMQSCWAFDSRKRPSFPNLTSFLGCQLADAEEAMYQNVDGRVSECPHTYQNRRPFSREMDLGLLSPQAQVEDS
# Description: as §2
# Cdk-2/cyclin E = target: T3, Cdk-2/cyclin E (Homo sapiens, UniProt P24941); assay: Recombinant kinase radioassay, Cdk-2/cyclin E; assay type: biochemical; settings: ATP 15 µM, at least three independent experiments, range 0.01–100 µM
# T3 construct: made in house
# Description: as §2
# K562 = assay: Cytotoxicity assay (resazurin), K562; assay type: cell-based; settings: Homo sapiens, 72 h, three independent experiments, range 0.1 to 25 µM
# Description: as §1
# HL-60 = assay: Cytotoxicity assay (resazurin), HL-60; assay type: cell-based; settings: Homo sapiens, 72 h, three independent experiments, range 0.1 to 25 µM
# Description: as §1
# CEM = assay: Cytotoxicity assay (resazurin), CEM; assay type: cell-based; settings: Homo sapiens, CCRF-CEM, 72 h, three independent experiments, range 0.1 to 25 µM
# Description: as §1
# Ramos = assay: Cytotoxicity assay (resazurin), Ramos; assay type: cell-based; settings: Homo sapiens, 72 h, three independent experiments, range 0.1 to 25 µM
# Description: as §1
# [1] = recombinant kinase, radioassay, ATP 15 µM, at least three independent experiments, range 0.01–100 µM, read-out: IC50 BTK
# [2] = recombinant kinase, radioassay, at least three independent experiments, range 0.01–100 µM, read-out: IC50 FLT3-ITD
# [3] = -log IC50 in molar concentration, Table S3, read-out: Experimental pIC50, CoMFA BTK (converted)
# [4] = -log IC50 in molar concentration, Table S3, read-out: Experimental pIC50, CoMFA FLT3 (converted)
# T1 sequence (Q06187 whole entry): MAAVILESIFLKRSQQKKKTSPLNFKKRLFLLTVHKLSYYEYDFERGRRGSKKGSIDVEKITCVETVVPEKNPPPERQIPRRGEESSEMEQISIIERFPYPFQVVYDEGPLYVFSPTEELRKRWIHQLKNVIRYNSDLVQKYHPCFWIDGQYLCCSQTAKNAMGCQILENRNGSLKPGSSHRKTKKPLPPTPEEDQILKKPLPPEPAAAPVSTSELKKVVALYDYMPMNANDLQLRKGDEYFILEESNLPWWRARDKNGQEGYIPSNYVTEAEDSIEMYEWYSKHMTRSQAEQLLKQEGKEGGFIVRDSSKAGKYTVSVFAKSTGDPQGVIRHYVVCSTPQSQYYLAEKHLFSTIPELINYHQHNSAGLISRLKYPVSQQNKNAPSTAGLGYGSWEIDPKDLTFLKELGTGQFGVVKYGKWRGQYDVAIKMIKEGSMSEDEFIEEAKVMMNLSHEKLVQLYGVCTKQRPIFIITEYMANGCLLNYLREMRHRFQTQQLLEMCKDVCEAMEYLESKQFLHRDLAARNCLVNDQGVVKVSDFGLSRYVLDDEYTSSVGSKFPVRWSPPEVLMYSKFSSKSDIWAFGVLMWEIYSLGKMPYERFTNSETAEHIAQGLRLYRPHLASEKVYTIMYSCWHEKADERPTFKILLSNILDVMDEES
# Sequence of Bcr-Abl1 (P00519 27-1130): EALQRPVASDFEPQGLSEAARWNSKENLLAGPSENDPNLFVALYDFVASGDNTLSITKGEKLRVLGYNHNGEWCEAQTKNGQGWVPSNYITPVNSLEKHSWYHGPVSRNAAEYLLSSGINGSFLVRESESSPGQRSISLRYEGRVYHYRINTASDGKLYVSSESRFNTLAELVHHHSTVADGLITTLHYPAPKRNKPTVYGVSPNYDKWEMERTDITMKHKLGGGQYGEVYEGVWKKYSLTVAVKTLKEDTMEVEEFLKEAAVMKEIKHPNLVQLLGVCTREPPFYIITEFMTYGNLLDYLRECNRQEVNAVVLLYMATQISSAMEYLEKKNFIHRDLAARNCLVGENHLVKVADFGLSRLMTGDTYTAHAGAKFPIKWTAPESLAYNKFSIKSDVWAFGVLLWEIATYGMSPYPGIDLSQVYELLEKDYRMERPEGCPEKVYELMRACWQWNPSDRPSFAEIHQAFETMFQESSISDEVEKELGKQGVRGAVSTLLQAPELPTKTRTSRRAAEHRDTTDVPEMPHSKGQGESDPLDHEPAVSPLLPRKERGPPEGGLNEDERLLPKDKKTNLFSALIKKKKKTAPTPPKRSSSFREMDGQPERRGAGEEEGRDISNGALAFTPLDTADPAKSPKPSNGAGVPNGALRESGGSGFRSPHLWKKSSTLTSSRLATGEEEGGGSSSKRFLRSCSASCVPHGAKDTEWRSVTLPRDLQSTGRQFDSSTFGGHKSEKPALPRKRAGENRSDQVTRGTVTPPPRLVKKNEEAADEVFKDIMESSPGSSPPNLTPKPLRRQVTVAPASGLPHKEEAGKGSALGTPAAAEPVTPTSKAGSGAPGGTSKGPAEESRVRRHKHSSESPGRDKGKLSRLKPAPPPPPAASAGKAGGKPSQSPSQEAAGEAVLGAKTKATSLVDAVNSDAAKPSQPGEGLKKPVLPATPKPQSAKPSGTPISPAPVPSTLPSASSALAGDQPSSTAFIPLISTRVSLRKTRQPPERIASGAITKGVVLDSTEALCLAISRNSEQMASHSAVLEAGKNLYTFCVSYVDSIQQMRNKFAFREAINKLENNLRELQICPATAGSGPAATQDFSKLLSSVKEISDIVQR
compound,measurement,setting,value
"CCCCCn1cnc2c(Nc3ccc(F)c(F)c3)nc(Nc3ccc(N4CCN(C)CC4)cc3)nc21 [Compound 5f, N^6-(3,4-Difluorophenyl)-N^2-(4-(4-methylpiperazin-1-yl)phenyl)-9-pentyl-9H-purine-2,6-diamine]",GI50,MV4-11,1.61 ± 0.63 µM
same,IC50,Bcr-Abl1,1.36 ± 0.5 µM
same,IC50,BTK; [1],0.93 ± 0.14 µM
same,IC50,FLT3-ITD; [2],1.02 µM
same,IC50,Cdk-2/cyclin E,20.8 ± 3.18 µM
same,GI50,K562,> 25 µM
same,GI50,HL-60,3.61 ± 1.02 µM
same,GI50,CEM,> 25 µM
same,GI50,Ramos,> 25 µM
"CCCCCCn1cnc2c(Nc3ccccc3)nc(Nc3ccc(N4CCN(C)CC4)cc3)nc21 [Compound 5g, 9-Hexyl-N^2-(4-(4-methylpiperazin-1-yl)phenyl)-N^6-phenyl-9H-purine-2,6-diamine]",GI50,MV4-11,4.27 ± 1.45 µM
same,IC50,Bcr-Abl1,9.82 ± 1.87 µM
same,IC50,BTK; [1],0.91 ± 0.02 µM
same,IC50,FLT3-ITD; [2],1.91 µM
same,IC50,Cdk-2/cyclin E,27.9 ± 1.04 µM
same,GI50,K562,15.5 ± 4.98 µM
same,GI50,HL-60,6.11 ± 0.76 µM
same,GI50,CEM,34.7 ± 1.37 µM
same,melting point,,155.8 to 160 °C
same,GI50,Ramos,22.5 ± 1.23 µM
"CCOC(=O)c1ccc(Nc2nc(Nc3ccc(N4CCN(C)CC4)cc3)nc3c2ncn3CC2CC2)cc1 [Compound 4k, Ethyl-4-((9-(cyclopropylmethyl)-2-((4-(4-methylpiperazin-1-yl)phenyl)amino)-9H-purin-6-yl)amino)benzoate]",GI50,MV4-11,2.43 ± 0.59 µM
same,IC50,Bcr-Abl1,0.04 ± 0.01 µM
same,IC50,BTK; [1],1.16 ± 0.18 µM
same,IC50,FLT3-ITD; [2],1.16 µM
same,IC50,Cdk-2/cyclin E,> 50 µM
same,GI50,K562,2.7 ± 1.31 µM
same,GI50,HL-60,1.93 ± 0.17 µM
same,GI50,CEM,13.9 ± 1.12 µM
same,GI50,Ramos,12.3 ± 1.58 µM
O=C(Cl)c1ccc([N+](=O)[O-])cc1 [Compound 6],IC50,BTK; [3],4.12 µM
same,IC50,FLT3-ITD; [4],2.32 µM
"CN1CCN(c2ccc(Nc3nc(Nc4ccccc4F)c4ncn(CC5CC5)c4n3)cc2)CC1 [Compound 4a, 9-(Cyclopropylmethyl)-N^6-(2-fluorophenyl)-N^2-(4-(4-methylpiperazin-1-yl)phenyl)-9H-purine-2,6-diamine]",GI50,MV4-11,6.47 ± 1.82 µM
same,IC50,Bcr-Abl1,4.19 ± 0.83 µM
same,IC50,BTK; [1],14.7 ± 1.48 µM
same,IC50,Cdk-2/cyclin E,14 ± 2.33 µM
same,GI50,K562,21.3 ± 0.63 µM
same,GI50,HL-60,1.82 ± 0.35 µM
same,GI50,CEM,17.1 ± 0.4 µM
same,melting point,,149 to 152 °C
same,GI50,Ramos,15.6 ± 0.88 µM
"CN1CCN(c2ccc(Nc3nc(Nc4cccc(C#N)c4)c4ncn(CC5CC5)c4n3)cc2)CC1 [Compound 4f, 3-((9-(Cyclopropylmethyl)-2-((4-(4-methylpiperazin-1-yl)phenyl)amino)-9H-purin-6-yl)amino)benzonitrile]",GI50,MV4-11,1.05 ± 0.1 µM
same,IC50,Bcr-Abl1,0.07 ± 0.01 µM
same,IC50,BTK; [1],1.43 ± 0.29 µM
same,IC50,FLT3-ITD; [2],0.93 µM
same,IC50,Cdk-2/cyclin E,23.6 ± 1.15 µM
same,GI50,K562,3.68 ± 0.78 µM
same,GI50,HL-60,1.56 ± 0.88 µM
same,GI50,Ramos,5.86 ± 3.64 µM
"CCCCCCCCn1cnc2c(Nc3ccc(F)c(F)c3)nc(Nc3ccc(N4CCN(C)CC4)cc3)nc21 [Compound 5l, N^6-(3,4-Difluorophenyl)-N^2-(4-(4-methylpiperazin-1-yl)phenyl)-9-octyl-9H-purine-2,6-diamine]",GI50,MV4-11,16.3 ± 4.99 µM
same,IC50,Bcr-Abl1,84.5 ± 5.9 µM
same,IC50,BTK; [1],0.58 ± 0.33 µM
same,IC50,FLT3-ITD; [2],> 20 µM
same,IC50,Cdk-2/cyclin E,32.2 ± 1.33 µM
same,GI50,K562,11.8 ± 2.19 µM
same,GI50,HL-60,1.51 ± 1.49 µM
same,GI50,CEM,> 25 µM
same,GI50,Ramos,18.9 ± 2.11 µM
Clc1nc(Cl)c2ccn(CC3CC3)c2n1 [Compound 10],IC50,BTK; [3],0.912 µM
same,IC50,FLT3-ITD; [4],0.367 µM
"CN1CCN(C(=O)c2ccc(Nc3nc(Nc4cccc(F)c4)c4ncn(CC5CC5)c4n3)cc2)CC1 [Compound 8b, (4-((9-(Cyclopropylmethyl)-6-((3-fluorophenyl)amino)-9H-purin-2-yl)amino)phenyl)(4-methylpiperazin-1-yl)methanone]",GI50,MV4-11,1.48 ± 0.54 µM
same,IC50,BTK; [1],1.72 ± 0.19 µM
same,IC50,FLT3-ITD; [2],1.6 µM
same,GI50,K562,4.91 ± 0.01 µM
same,GI50,HL-60,1.08 ± 0.1 µM
same,GI50,CEM,20.2 ± 3.73 µM
same,melting point,,150 to 151 °C
same,GI50,Ramos,7.07 ± 0.32 µM
